Laboratory results from ChEMBL document CHEMBL5131531, “Small Molecule Inhibitors of TET Dioxygenases: Bobcat339 Activity Is Mediated by Contaminating Copper(II)” (ACS Med Chem Lett, 2022).
The source made the active and inactive calls. The rule behind the calls is not given here.

Experiments:
[1] = biological target: Methylcytosine dioxygenase TET1 (Homo sapiens) (UniProt Q8NFU7); assay: Inhibition of recombinant human TET1 catalytic domain assessed as reduction of 5hmC formation at 25 uM incubated for 30 mins by HPLC-ESI-MS/MS method
[2] = biological target: Methylcytosine dioxygenase TET2 (Homo sapiens) (UniProt Q6N021); assay: Inhibition of recombinant human TET2 catalytic domain assessed as reduction of 5hmC formation at 125 uM using hemi-methylated synthetic oligomer 5'-AATTAGAA[5meC]GCTCCTT-3' as substrate incubated for 30 mins by LC-MS method
[3] = biological target: Methylcytosine dioxygenase TET1 (Homo sapiens) (UniProt Q8NFU7); assay: Inhibition of recombinant human TET1 catalytic domain assessed as reduction of 5hmC formation at 125 uM using hemi-methylated synthetic oligomer 5'-AATTAGAA[5meC]GCTCCTT-3' as substrate incubated for 30 mins by LC-MS method
[4] = biological target: Methylcytosine dioxygenase TET1 (Homo sapiens) (UniProt Q8NFU7); assay: Inhibition of recombinant human TET1 catalytic domain assessed as reduction of 5hmC formation at 125 uM using hemi-methylated synthetic oligomer 5'-AATTAGAA[5meC]GCTCCTT-3' as substrate incubated for 30 mins in presence of CuSO4 by LC-MS method
[5] = biological target: Methylcytosine dioxygenase TET1 (Homo sapiens) (UniProt Q8NFU7); assay: Inhibition of recombinant human TET1 assessed as reduction of 5hmC formation at 0.01 to 125 uM incubated for 30 mins in presence of 1 uM CuSO4 by HPLC-ESI-MS/MS method; settings: dose 0.01-125 µM
[6] = biological target: Methylcytosine dioxygenase TET1 (Homo sapiens) (UniProt Q8NFU7); assay: Inhibition of recombinant human TET1 assessed as reduction of 5hmC formation at 0.01 to 125 uM incubated for 30 mins in presence of 4 uM CuSO4 by HPLC-ESI-MS/MS method; settings: dose 0.01-125 µM

Sequence of Methylcytosine dioxygenase TET1 (Homo sapiens) (Q8NFU7 whole entry, the tested form may be a part): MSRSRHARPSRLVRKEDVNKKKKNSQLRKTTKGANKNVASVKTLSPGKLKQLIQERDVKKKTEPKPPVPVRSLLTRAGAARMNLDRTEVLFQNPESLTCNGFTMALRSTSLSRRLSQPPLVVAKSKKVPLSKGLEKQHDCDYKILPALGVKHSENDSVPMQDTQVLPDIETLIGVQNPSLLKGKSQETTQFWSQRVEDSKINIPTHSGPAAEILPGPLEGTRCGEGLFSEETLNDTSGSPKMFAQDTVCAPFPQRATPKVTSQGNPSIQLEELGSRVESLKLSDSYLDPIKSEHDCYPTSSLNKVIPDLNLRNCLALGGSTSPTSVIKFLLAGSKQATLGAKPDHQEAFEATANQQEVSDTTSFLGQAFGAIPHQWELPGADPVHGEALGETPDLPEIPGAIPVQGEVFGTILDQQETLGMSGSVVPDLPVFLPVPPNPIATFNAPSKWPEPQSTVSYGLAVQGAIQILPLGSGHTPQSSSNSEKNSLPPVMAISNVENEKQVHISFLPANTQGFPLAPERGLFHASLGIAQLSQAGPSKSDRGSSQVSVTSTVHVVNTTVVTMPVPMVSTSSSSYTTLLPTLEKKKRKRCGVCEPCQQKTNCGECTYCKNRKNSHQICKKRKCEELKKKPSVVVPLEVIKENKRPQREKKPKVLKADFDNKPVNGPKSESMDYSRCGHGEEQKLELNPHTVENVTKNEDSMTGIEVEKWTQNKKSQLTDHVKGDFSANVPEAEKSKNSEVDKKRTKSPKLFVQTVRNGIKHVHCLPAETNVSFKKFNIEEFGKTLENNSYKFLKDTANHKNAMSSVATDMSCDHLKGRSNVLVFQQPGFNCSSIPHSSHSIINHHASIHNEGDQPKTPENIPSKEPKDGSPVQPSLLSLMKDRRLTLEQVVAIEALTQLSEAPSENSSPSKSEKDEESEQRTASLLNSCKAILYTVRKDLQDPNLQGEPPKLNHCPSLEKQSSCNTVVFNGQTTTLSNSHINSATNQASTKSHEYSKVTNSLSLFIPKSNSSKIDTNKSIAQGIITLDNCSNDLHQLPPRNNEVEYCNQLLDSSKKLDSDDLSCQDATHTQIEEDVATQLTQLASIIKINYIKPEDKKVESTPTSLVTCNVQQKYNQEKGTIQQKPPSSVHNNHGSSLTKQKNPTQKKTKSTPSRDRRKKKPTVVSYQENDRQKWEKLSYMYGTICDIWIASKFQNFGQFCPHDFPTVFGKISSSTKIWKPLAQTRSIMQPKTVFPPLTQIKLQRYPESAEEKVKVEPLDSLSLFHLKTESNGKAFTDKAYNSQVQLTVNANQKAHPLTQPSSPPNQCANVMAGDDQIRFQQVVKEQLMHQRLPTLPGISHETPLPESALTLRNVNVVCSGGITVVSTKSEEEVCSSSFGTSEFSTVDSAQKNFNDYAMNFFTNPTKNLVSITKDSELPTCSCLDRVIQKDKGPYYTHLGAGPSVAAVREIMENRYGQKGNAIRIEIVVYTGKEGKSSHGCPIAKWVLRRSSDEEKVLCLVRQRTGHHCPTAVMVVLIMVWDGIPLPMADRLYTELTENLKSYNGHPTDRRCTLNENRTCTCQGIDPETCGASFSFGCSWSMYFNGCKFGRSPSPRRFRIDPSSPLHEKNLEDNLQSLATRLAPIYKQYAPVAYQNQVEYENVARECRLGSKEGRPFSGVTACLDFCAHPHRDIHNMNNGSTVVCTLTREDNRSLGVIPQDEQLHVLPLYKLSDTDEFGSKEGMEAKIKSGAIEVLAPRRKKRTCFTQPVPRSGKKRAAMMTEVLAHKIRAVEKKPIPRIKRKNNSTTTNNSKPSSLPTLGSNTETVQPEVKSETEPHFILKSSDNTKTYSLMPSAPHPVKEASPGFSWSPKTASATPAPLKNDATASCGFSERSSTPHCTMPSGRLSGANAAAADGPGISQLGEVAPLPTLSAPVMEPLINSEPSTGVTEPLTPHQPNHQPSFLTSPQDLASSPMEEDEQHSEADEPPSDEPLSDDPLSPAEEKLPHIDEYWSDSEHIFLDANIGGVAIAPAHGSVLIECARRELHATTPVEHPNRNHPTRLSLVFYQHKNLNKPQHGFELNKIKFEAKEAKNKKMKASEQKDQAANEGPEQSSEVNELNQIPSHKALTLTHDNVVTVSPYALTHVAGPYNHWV

inhibition [1] | inhibition [2] | inhibition [3] | inhibition [4] | inhibition [5] | inhibition [6] | Molecule
Active | Active | Active |  |  |  | CUPRIC SULFATE
Active |  | Active | Active | Active | Active | Nc1nc(=O)n(-c2cccc(-c3ccccc3)c2)cc1Cl
